Measurements from US7919261B2, “Methods for predicting treatment response based on the expression profiles of protein and transcription biomarkers” (Merck Sharp & Dohme Corp., priority 2006, dated 2011).

Assays:
HUT78 = experiment: TUNEL assay, vorinostat, JAK inhibitor and combination; assay type: cell-based, human; details: for % TUNEL positive cells: HUT78 cells, 48 h, induction of apoptosis
DB = experiment: CellTiter-Blue Cell Viability Assay; assay type: cell-based; details: Homo sapiens; cell line DB, Lymphoma DLBCL; read-out: IC50 (μM) (Cell Titre-Blue assay)
Method: (§1) For the proliferation assay, cell lines were seeded on 96-well plates (Corning). […] The CellTiter-Blue Reagent™ was added to each of the wells. Experiments were performed in triplicate. The plates were then placed at 37° C. for two hours, and subsequently read on the Flex Station II […] from Molecular Devices. The IC50 values were calculated using the Sigma Plot software.
(§2) An expanded set of 50 human cell lines, including the twelve cell lines listed in Table 1, were assembled (Table 2), that represent a range of lymphoid tumor types (including 10 diffuse large B cell lymphoma, 10 Burkitt lymphoma, 8 multiple myeloma and 5 CTCL).

HUT_102 = experiment: CellTiter-Blue Cell Viability Assay; assay type: cell-based; details: Homo sapiens, HuT-102; cell line HUT_102 (HUT102), Lymphoma - CTCL; read-out: IC50 (μM) (Cell Titre-Blue assay)
Method: as §1, §2

HuT_78 = experiment: CellTiter-Blue Cell Viability Assay; assay type: cell-based; details: Homo sapiens, HuT78; cell line HuT_78, Lymphoma- CTCL; read-out: IC50 (μM) (Cell Titre-Blue assay)
Method: as §1, §2

IM_9 = experiment: CellTiter-Blue Cell Viability Assay; assay type: cell-based; details: Homo sapiens, IM-9; cell line IM_9, Multiple Myeloma; read-out: IC50 (μM) (Cell Titre-Blue assay)
Method: as §1, §2

OCI_LY_19 = experiment: CellTiter-Blue Cell Viability Assay; assay type: cell-based; details: Homo sapiens, OCI-LY19; cell line OCI_LY_19, Lymphoma DLBCL; read-out: IC50 (μM) (Cell Titre-Blue assay)
Method: as §1, §2

RL = experiment: CellTiter-Blue Cell Viability Assay; assay type: cell-based; details: Homo sapiens; cell line RL, Lymphoma - DLBCL; read-out: IC50 (μM) (Cell Titre-Blue assay)
Method: as §1, §2

SU_DHL_4 = experiment: CellTiter-Blue Cell Viability Assay; assay type: cell-based; details: Homo sapiens, SU-DHL-4; cell line SU_DHL_4, Lymphoma DLBCL; read-out: IC50 (μM) (Cell Titre-Blue assay)
Method: as §1, §2

Toledo [1] = experiment: CellTiter-Blue Cell Viability Assay; assay type: cell-based; details: Homo sapiens, cell line Toledo (1), Lymphoma DLBCL, read-out: IC50 (μM) (Cell Titre-Blue assay)
Method: as §1, §2

BC_3 = experiment: ApoONE Homogeneous Caspase-3/7 Assay; assay type: cell-based, human; details: cell line BC_3
Method: (§3) Apoptosis assay: ApoONE® Homogeneous Caspase-3/7 Assay (Promega) was performed according to standard protocol (Promega). For the caspase assay cell lines were seeded and treated with vorinostat as previously indicated. After 24 hours of treatment, a volume equal to the media volume in each well of Apo-One Caspase 3/7 lysis was added to each well with cells. The apoptosis assay was then performed according to the manufacturer's instructions. The plates were read on the Flex Station II 384 from Molecular Devices. Where indicated, DNA fragmentation in response to vorinostat was also assessed in some cell lines by TUNEL assay (BD-PharMingen). […] Samples were analyzed by flow cytometry (FACSCalibur).
as §2

HH = experiment: ApoONE Homogeneous Caspase-3/7 Assay; assay type: cell-based, human; details: cell line HH
Method: as §3, §2

JM1 = experiment: ApoONE Homogeneous Caspase-3/7 Assay; assay type: cell-based, human; details: cell line JM1
Method: as §3, §2

ST486 = experiment: ApoONE Homogeneous Caspase-3/7 Assay; assay type: cell-based, human; details: cell line ST486
Method: as §3, §2

SUP_T1 = experiment: ApoONE Homogeneous Caspase-3/7 Assay; assay type: cell-based, human; details: cell line SUP_T1 (SUPT1)
Method: as §3, §2

Toledo [2] = experiment: ApoONE Homogeneous Caspase-3/7 Assay; assay type: cell-based, human
Method: as §3, §2

SMILES | induction of apoptosis in combination with vorinostat (TUNEL assay) (HUT78; HUT78 CTCL cells, as detailed in Table 4) | % TUNEL positive cells (HUT78) [%] | IC50 (DB) [µM] | IC50 (HUT_102) [µM] | IC50 (HuT_78) [µM] | IC50 (IM_9) [µM] | IC50 (OCI_LY_19) [µM] | IC50 (RL) [µM] | IC50 (SU_DHL_4) [µM] | IC50 (Toledo [1]) [µM] | Caspase 3,7 activation- 24 h (1 μM vorinostat)* (BC_3) | Caspase 3,7 activation- 24 h (1 μM vorinostat)* (HH) | Caspase 3,7 activation- 24 h (1 μM vorinostat)* (JM1) | Caspase 3,7 activation- 24 h (1 μM vorinostat)* (ST486) | Caspase 3,7 activation- 24 h (1 μM vorinostat)* (SUP_T1) | Caspase 3,7 activation- 24 h (1 μM vorinostat)* (Toledo [2]; cell line Toledo (1)) | Caspase 3,7 activation- 24 h (1 μM vorinostat)* (Toledo [2]; cell line Toledo (avg))
CC(C)(C)c1nc2c3cc[nH]c(=O)c3c3cc(F)ccc3c2[nH]1 [Compound B, 2-tert-butyl-9-fluoro-1,6-dihydro-7H-benzo[h]imidazo[4,5-f]isoquinolin-7-one] | synergistic induction of apoptosis | 37 | – | – | – | – | – | – | – | – | – | – | – | – | – | – | –
O=C(CCCCCCC(=O)Nc1ccccc1)NO [vorinostat, suberoylanilide hydroxamic acid] | – | 11 | 1.87 | 0.83 | 2.13 | 1.57 | 1.58 | 2.23 | 1.88 | 0.66 | + (Caspase 3,7 activation > 2 fold over untreated control.) | + (Caspase 3,7 activation > 2 fold over untreated control.) | + (Caspase 3,7 activation > 2 fold over untreated control.) | + (Caspase 3,7 activation > 2 fold over untreated control.) | + (Caspase 3,7 activation > 2 fold over untreated control.) | + (Caspase 3,7 activation > 2 fold over untreated control.) | + (Caspase 3,7 activation > 2 fold over untreated control.)
CN[C@@H]1C[C@H]2O[C@@](C)([C@@H]1OC)n1c3ccccc3c3c4c(c5c6ccccc6n2c5c31)C(=O)NC4 [ST, staurosporine] | – | 40 | – | – | – | – | – | – | – | – | – | – | – | – | – | – | –
